Columns and labels:
Assay in all cases: Virucidal activity, quantitative suspension test DIN EN 14476
Type in all cases: cell-based
Coronavirus (MHV-3) = system: Coronavirus (MHV-3)
Experimental: Testing was conducted over a period of 1 to 10 minutes. Activity against the following viruses was determined: • Coronavirus (MHV-3) • Influenza virus (H1N1) • Herpes simplex virus (HV) • Human respiratory syncytial virus (HRSV)
In this context (+) means that more than 99.99% of all viruses were inactivated; this is equivalent to a reduction factor of 10,000.

[1] = system: Human respiratory syncytial virus (HRSV)
[2] = system: Herpes simplex virus (HV)
Influenza virus (H1N1) = system: Influenza virus (H1N1)
[3] = 0.1 wt.-percent in water, 1 min
[4] = 0.1 wt.-percent in water, 10 min
[5] = 10 wt.-percent in water, 10 min
[6] = 33 wt.-percent in water, 10 min

CCCCCCCCC(O)CO (centres unmarked) [1,2-decanediol]
Virucidal activity MHV-3 (Coronavirus (MHV-3); [3]): (+) ((+) means that more than 99.99% of all viruses were inactivated; this is equivalent to a reduction factor of 10,000)
Virucidal activity MHV-3 (Coronavirus (MHV-3); [4]): (+) ((+) means that more than 99.99% of all viruses were inactivated; this is equivalent to a reduction factor of 10,000)
Virucidal activity MHV-3 (Coronavirus (MHV-3); 1 wt.-percent in water, 1 min): (+) ((+) means that more than 99.99% of all viruses were inactivated; this is equivalent to a reduction factor of 10,000)
Virucidal activity MHV-3 (Coronavirus (MHV-3); 1 wt.-percent in water, 10 min): (+) ((+) means that more than 99.99% of all viruses were inactivated; this is equivalent to a reduction factor of 10,000)
Virucidal activity MHV-3 (Coronavirus (MHV-3); 10 wt.-percent in water, 1 min): (+) ((+) means that more than 99.99% of all viruses were inactivated; this is equivalent to a reduction factor of 10,000)
Virucidal activity MHV-3 (Coronavirus (MHV-3); [5]): (+) ((+) means that more than 99.99% of all viruses were inactivated; this is equivalent to a reduction factor of 10,000)
Virucidal activity HRSV [1, 3]: (+) ((+) means that more than 99.99% of all viruses were inactivated; this is equivalent to a reduction factor of 10,000)
Virucidal activity HRSV [1, 4]: (+) ((+) means that more than 99.99% of all viruses were inactivated; this is equivalent to a reduction factor of 10,000)
Virucidal activity HRSV ([1]; 1 wt.-percent in water, 1 min): (+) ((+) means that more than 99.99% of all viruses were inactivated; this is equivalent to a reduction factor of 10,000)
Virucidal activity HRSV ([1]; 1 wt.-percent in water, 10 min): (+) ((+) means that more than 99.99% of all viruses were inactivated; this is equivalent to a reduction factor of 10,000)
Virucidal activity HRSV ([1]; 10 wt.-percent in water, 1 min): (+) ((+) means that more than 99.99% of all viruses were inactivated; this is equivalent to a reduction factor of 10,000)
Virucidal activity HRSV [1, 5]: (+) ((+) means that more than 99.99% of all viruses were inactivated; this is equivalent to a reduction factor of 10,000)
Virucidal activity HV [2, 3]: (+) ((+) means that more than 99.99% of all viruses were inactivated; this is equivalent to a reduction factor of 10,000)
Virucidal activity HV [2, 4]: (+) ((+) means that more than 99.99% of all viruses were inactivated; this is equivalent to a reduction factor of 10,000)
Virucidal activity HV ([2]; 1 wt.-percent in water, 1 min): (+) ((+) means that more than 99.99% of all viruses were inactivated; this is equivalent to a reduction factor of 10,000)
Virucidal activity HV ([2]; 1 wt.-percent in water, 10 min): (+) ((+) means that more than 99.99% of all viruses were inactivated; this is equivalent to a reduction factor of 10,000)
Virucidal activity HV ([2]; 10 wt.-percent in water, 1 min): (+) ((+) means that more than 99.99% of all viruses were inactivated; this is equivalent to a reduction factor of 10,000)
Virucidal activity HV [2, 5]: (+) ((+) means that more than 99.99% of all viruses were inactivated; this is equivalent to a reduction factor of 10,000)
Virucidal activity H1N1 (Influenza virus (H1N1); [3]): (+) ((+) means that more than 99.99% of all viruses were inactivated; this is equivalent to a reduction factor of 10,000)
Virucidal activity H1N1 (Influenza virus (H1N1); [4]): (+) ((+) means that more than 99.99% of all viruses were inactivated; this is equivalent to a reduction factor of 10,000)
Virucidal activity H1N1 (Influenza virus (H1N1); 1 wt.-percent in water, 1 min): (+) ((+) means that more than 99.99% of all viruses were inactivated; this is equivalent to a reduction factor of 10,000)
Virucidal activity H1N1 (Influenza virus (H1N1); 1 wt.-percent in water, 10 min): (+) ((+) means that more than 99.99% of all viruses were inactivated; this is equivalent to a reduction factor of 10,000)
Virucidal activity H1N1 (Influenza virus (H1N1); 10 wt.-percent in water, 1 min): (+) ((+) means that more than 99.99% of all viruses were inactivated; this is equivalent to a reduction factor of 10,000)
Virucidal activity H1N1 (Influenza virus (H1N1); [5]): (+) ((+) means that more than 99.99% of all viruses were inactivated; this is equivalent to a reduction factor of 10,000)

CCCCC(O)CO (centres unmarked) [1,2-hexanediol]
Virucidal activity MHV-3 (Coronavirus (MHV-3); 33 wt.-percent in water, 1 min): (+) ((+) means that more than 99.99% of all viruses were inactivated; this is equivalent to a reduction factor of 10,000)
Virucidal activity HRSV ([1]; 33 wt.-percent in water, 1 min): (+) ((+) means that more than 99.99% of all viruses were inactivated; this is equivalent to a reduction factor of 10,000)
Virucidal activity HV ([2]; 33 wt.-percent in water, 1 min): (+) ((+) means that more than 99.99% of all viruses were inactivated; this is equivalent to a reduction factor of 10,000)
Virucidal activity H1N1 (Influenza virus (H1N1); 33 wt.-percent in water, 1 min): (+) ((+) means that more than 99.99% of all viruses were inactivated; this is equivalent to a reduction factor of 10,000)

CCCCCCC(O)CO (centres unmarked) [1,2-octanediol]
Virucidal activity MHV-3 (Coronavirus (MHV-3); [6]): (+) ((+) means that more than 99.99% of all viruses were inactivated; this is equivalent to a reduction factor of 10,000)
Virucidal activity HRSV [1, 6]: (+) ((+) means that more than 99.99% of all viruses were inactivated; this is equivalent to a reduction factor of 10,000)
Virucidal activity HV [2, 6]: (+) ((+) means that more than 99.99% of all viruses were inactivated; this is equivalent to a reduction factor of 10,000)
Virucidal activity H1N1 (Influenza virus (H1N1); [6]): (+) ((+) means that more than 99.99% of all viruses were inactivated; this is equivalent to a reduction factor of 10,000)

CCCC(O)CO (centres unmarked) [1,2-pentanediol]
Virucidal activity MHV-3 (Coronavirus (MHV-3); 33 wt.-percent in water, 1 min): (+) ((+) means that more than 99.99% of all viruses were inactivated; this is equivalent to a reduction factor of 10,000)
Virucidal activity MHV-3 (Coronavirus (MHV-3); 33 wt.-percent in water, 5 min): (+) ((+) means that more than 99.99% of all viruses were inactivated; this is equivalent to a reduction factor of 10,000)
Virucidal activity MHV-3 (Coronavirus (MHV-3); [6]): (+) ((+) means that more than 99.99% of all viruses were inactivated; this is equivalent to a reduction factor of 10,000)
Virucidal activity HRSV ([1]; 33 wt.-percent in water, 1 min): (+) ((+) means that more than 99.99% of all viruses were inactivated; this is equivalent to a reduction factor of 10,000)
Virucidal activity HRSV ([1]; 33 wt.-percent in water, 5 min): (+) ((+) means that more than 99.99% of all viruses were inactivated; this is equivalent to a reduction factor of 10,000)
Virucidal activity HRSV [1, 6]: (+) ((+) means that more than 99.99% of all viruses were inactivated; this is equivalent to a reduction factor of 10,000)
Virucidal activity HV ([2]; 33 wt.-percent in water, 1 min): (+) ((+) means that more than 99.99% of all viruses were inactivated; this is equivalent to a reduction factor of 10,000)
Virucidal activity HV ([2]; 33 wt.-percent in water, 5 min): (+) ((+) means that more than 99.99% of all viruses were inactivated; this is equivalent to a reduction factor of 10,000)
Virucidal activity HV [2, 6]: (+) ((+) means that more than 99.99% of all viruses were inactivated; this is equivalent to a reduction factor of 10,000)
Virucidal activity H1N1 (Influenza virus (H1N1); 33 wt.-percent in water, 1 min): (+) ((+) means that more than 99.99% of all viruses were inactivated; this is equivalent to a reduction factor of 10,000)
Virucidal activity H1N1 (Influenza virus (H1N1); 33 wt.-percent in water, 5 min): (+) ((+) means that more than 99.99% of all viruses were inactivated; this is equivalent to a reduction factor of 10,000)
Virucidal activity H1N1 (Influenza virus (H1N1); [6]): (+) ((+) means that more than 99.99% of all viruses were inactivated; this is equivalent to a reduction factor of 10,000)

Reference: patent publication US20240237643A1, “COMPOSITIONS WITH VIRUCIDAL AND/OR ANTIVIRAL ACTIVITY” (priority 2020, published 2024)
